{"source": "paper PMC6010082", "about": "“Synthesis and in vitro antiproliferative and antibacterial activity of new thiazolidine-2,4-dione derivatives” (Journal of Enzyme Inhibition and Medicinal Chemistry, 2017)", "key": {"[1]": {"system": "human lung carcinoma (A549)", "experiment": "MTT antiproliferative assay, A549 cells", "type": "cell-based", "settings": "for IC50: Homo sapiens, MTT, 48 h exposure, read-out: IC50 [µg/ml] ± SEM, A549; for SI [IC50BJ/IC50], A549: safety index = IC50 normal cells (BJ)/IC50 A549", "method": "(§1) The experiment was carried out using normal human skin fibroblasts (BJ) and tumour cell lines: human lung carcinoma (A549), human hepatocellular carcinoma (HepG2), and human breast adenocarcinoma (MCF-7). All cell lines were obtained from ATCC (American Type Culture Collection, England, UK) and cultured in the appropriate, recommended by ATCC, culture medium, additionally supplemented with 10% foetal bovine serum and antibiotics: 100 U/ml penicillin and 100 µg/ml streptomycin. The cells were maintained at 37 °C in a humidified atmosphere of 5% CO2 and 95% air. Antiproliferative activity of the new compounds was assessed by, commonly used for this purpose, colorimetric MTT assay. Cells with active mitochondrial dehydrogenases reduced intracellularly the tetrazolium dye into purple formazan, which is proportional to the number of viable cells. The cells were seeded in 96-multiwell plates in 100 μl of the appropriate complete culture medium at a concentration of 7 × 10^3 cells/well in the case of BJ cells (normal fibroblasts), 1 × 10^4 cells/well in the case of A549 cells (lung cancer), 1.5 × 10^4 cells/well in the case of HepG2 cells (liver cancer), and 2 × 10^4 cells/well in the case of MCF-7 cells (breast cancer) so as to obtain 60–70% confluent culture after 24 h of incubation at 37 °C – the cells are then in the log (logarithmic) phase, during a period of active proliferation, but still have an unoccupied space to divide. Afterwards, the culture medium was discarded and replaced with 100 µl of different concentrations of new tested compounds and reference antiproliferative agent: irinotecan. The stock solutions of the compounds were prepared in DMSO, and solvent control was being tested concurrently to exclude toxicity attributed to DMSO. Ten serial two-fold dilutions using culture medium were performed to prepare different concentrations of the tested compounds, and the highest tested concentration was 200 µg/ml. Untreated cells (maintained in the complete culture medium) served as a negative control. After exposing cells for 48 h to the tested derivatives, the MTT assay was performed as described earlier. Three independent experiments (n = 3) were performed in a quadruplicate. The obtained data were analysed using GraphPad Prism 5, version 5.03 software (La Jolla, CA). […] Moreover, safety index (SI) was calculated using the following formula: SI=IC50normal cells (BJ)/IC50cancer cells"}, "[2]": {"system": "human hepatocellular carcinoma (HepG2)", "experiment": "MTT antiproliferative assay, HepG2 cells", "type": "cell-based", "settings": "for IC50: Homo sapiens, MTT, 48 h exposure, read-out: IC50 [µg/ml] ± SEM, HepG2", "method": "as §1"}, "[3]": {"system": "human breast adenocarcinoma (MCF-7)", "experiment": "MTT antiproliferative assay, MCF-7 cells", "type": "cell-based", "settings": "for IC50: Homo sapiens, MCF7, MTT, 48 h exposure, read-out: IC50 [µg/ml] ± SEM, MCF-7", "method": "as §1"}, "[4]": {"system": "normal human skin fibroblasts (BJ)", "experiment": "MTT assay, normal fibroblasts BJ", "type": "cell-based", "settings": "Skin fibroblast, 48 h exposure, read-out: IC50 [µg/ml] ± SEM, BJ", "method": "as §1"}, "[5]": {"system": "Staphylococcus aureus ATCC 25923", "experiment": "Broth microdilution MIC, S. aureus ATCC 25923", "type": "cell-based", "settings": "35 °C; for Minimal inhibitory concentration MIC, Staphylococcus aureus 25923: 18 h; for MIC: Staphylococcus aureus, ATCC25923, 18 h, read-out: Minimal inhibitory concentration MIC, Staphylococcus aureus 25923", "method": "(§2) Newly synthesised compounds’ antibacterial activities were tested in vitro against six aerobic bacteria reference strains: three Gram-positive (Staphylococcus aureus ATCC 25923, methicillin-resistant S. aureus MIKROBANK 14.001 reference strain from National Medicines Institute in Warsaw, and Staphylococcus epidermidis ATCC 12228) and three Gram-negative (Escherichia coli ATCC 25922, Proteus mirabilis ATCC 12453, and Pseudomonas aeruginosa ATCC 9027).\n(§3) Bacterial cell suspensions equivalent to 0.5 McFarland (1.5 × 10^8 CFU/ml) were prepared in 0.85% sterile saline. Tested compounds’ stock solutions (50 mg/ml) were dissolved in dimethyl sulphoxide (DMSO).\n(§4) Bacteria strain susceptibility to tested agents was determined by broth microdilution method. Broth microdilution method was carried out in accordance with Clinical and Laboratory Standards Institute recommendations and was used as reference method. Mueller–Hinton broth containing two-fold dilutions of the tested substances (at concentrations ranging from 3.91 to 1000 µg/ml) was used to determine their minimal inhibitory concentration (MIC) which is the lowest concentration of an antibacterial that will inhibit the visible growth of a microorganism after 18 h of incubation). Mueller–Hinton broth is recommended as the medium of choice for susceptibility testing of commonly isolated, rapidly growing aerobic, or facultative organisms. Gentamicin (KRKA, Slovenia), an aminoglycoside antibiotic active against a wide range of human bacterial infections, mostly Gram-negative bacteria including Pseudomonas, Proteus, Serratia, and the Gram-positive Staphylococcus, was used as a control antibacterial agent (at concentration from 0.12 µg to 1000 µg).\n(§5) Tested compounds two-fold dilutions in Mueller–Hinton broth without bacteria were blank control wells (incubated on equal conditions). Polystyrene trays containing 96 wells were filled with serial two-fold Mueller–Hinton broth dilutions of tested agents. Next, the broth was inoculated with 20 μl of 0.5 McFarland microbial suspension (previously diluted 1:10 by Mueller–Hinton broth). Total volume per each well was 200 μl. After incubation (at 35 °C for 18 h), bacterial cultures’ optical density was measured by microplate reader (BioTek Synergy H4 Hybrid Reader) at 600 nm. The MIC values were determined by the comparison of broth bacterial culture OD600 containing tested concentrations of examined substances to blank control wells."}, "[6]": {"system": "methicillin-resistant S. aureus MIKROBANK 14.001", "experiment": "Broth microdilution MIC, methicillin-resistant S. aureus", "type": "cell-based, Staphylococcus aureus", "settings": "methicillin-resistant strain, 18 h, 35 °C; for MIC: Staphylococcus aureus, read-out: Minimal inhibitory concentration MIC, Staphylococcus aureus MIKROBANK 14.001", "method": "as §2, §3, §4, §5"}, "[7]": {"system": "Staphylococcus epidermidis ATCC 12228", "experiment": "Broth microdilution MIC, S. epidermidis ATCC 12228", "type": "cell-based", "settings": "35 °C; for Minimal inhibitory concentration MIC, Staphylococcus epidermidis 12228: 18 h; for MIC: Staphylococcus epidermidis, ATCC12228, 18 h, read-out: Minimal inhibitory concentration MIC, Staphylococcus epidermidis 12228", "method": "as §2, §3, §4, §5"}, "[8]": {"system": "Escherichia coli ATCC 25922", "experiment": "Broth microdilution MIC, E. coli ATCC 25922", "type": "cell-based", "settings": "ATCC25922, 18 h, 35 °C, read-out: Concentration inhibiting E. coli ATCC 25922 growth (MIC)", "method": "as §2, §3\nBacteria strain susceptibility to tested agents was determined by broth microdilution method. Broth microdilution method was carried out in accordance with Clinical and Laboratory Standards Institute recommendations and was used as reference method. […]\nTested compounds two-fold dilutions in Mueller–Hinton broth without bacteria were blank control wells (incubated on equal conditions). […] After incubation (at 35 °C for 18 h), bacterial cultures’ optical density was measured by microplate reader (BioTek Synergy H4 Hybrid Reader) at 600 nm. The MIC values were determined by the comparison of broth bacterial culture OD600 containing tested concentrations of examined substances to blank control wells."}, "MCF-7": {"system": "MCF-7", "set-up": "method as in earlier work", "settings": "MCF-7 tumour cells; ref 6 (Alegaon et al.); cited from earlier work"}, "A549": {"system": "A549", "set-up": "method as in earlier work", "settings": "A549 tumour cells; ref 6 (Alegaon et al.); cited from earlier work"}, "[9]": {"settings": "MCF-7 cells, compared to irinotecan"}}}
{"smiles": "Cc1ccc(NC(=S)NN=Cc2cccc(OC(=O)CC3SC(=O)NC3=O)c2)cc1", "note": "(stereo not drawn) [Compound 23, 3-[{2-[(4-Methylphenyl)carbamothioyl]hydrazinylidene}methyl]phenyl (2,4-dioxo-1,3-thiazolidin-5-yl)acetate]", "values": [{"measurement": "IC50", "setting": "[1]; A549 cells", "value": "31.3 ± 1.66", "unit": "µg/mL"}, {"measurement": "SI [IC50BJ/IC50], A549", "setting": "[1]", "value": 0.80}, {"measurement": "IC50", "setting": "[2]; HepG2 cells", "value": "15.2 ± 1.25", "unit": "µg/mL"}, {"measurement": "SI [IC50BJ/IC50], HepG2", "setting": "[2]; safety index = IC50 normal cells (BJ)/IC50 HepG2", "value": 1.66}, {"measurement": "IC50", "setting": "[3]; MCF-7 cells", "value": "34.2 ± 1.12", "unit": "µg/mL"}, {"measurement": "SI [IC50BJ/IC50], MCF-7", "setting": "[3]; safety index = IC50 normal cells (BJ)/IC50 MCF-7", "value": 0.74}, {"measurement": "IC50", "setting": "[4]", "value": "25.2 ± 1.52", "unit": "µg/mL"}, {"measurement": "Minimal inhibitory concentration MIC, Staphylococcus aureus 25923", "setting": "[5]", "value": 125, "unit": "µg/mL"}, {"measurement": "MIC", "setting": "[5]", "value": 125, "unit": "µg/mL"}, {"measurement": "MIC", "setting": "[6]", "value": 125, "unit": "µg/mL"}, {"measurement": "Minimal inhibitory concentration MIC, Staphylococcus aureus MIKROBANK 14.001", "setting": "[6]", "value": 125, "unit": "µg/mL"}, {"measurement": "Minimal inhibitory concentration MIC, Staphylococcus epidermidis 12228", "setting": "[7]", "value": 62.5, "unit": "µg/mL"}, {"measurement": "MIC", "setting": "[7]", "value": 62.5, "unit": "µg/mL"}, {"measurement": "melting point", "value": "194 to 196", "unit": "°C"}]}
{"smiles": "O=C(C=C1SC(=O)NC1=O)Oc1ccccc1C=NNC(=O)c1cccc(Cl)c1", "note": "[Compound 18, 2-{[2-(3-Chlorobenzoyl)hydrazinylidene]methyl}phenyl (2,4-dioxo-1,3-thiazolidin-5-ylidene)acetate]", "values": [{"measurement": "IC50 fold lower compared to irinotecan, A549", "setting": "[1]; A549 cells, compared to irinotecan", "value": "five-fold lower"}, {"measurement": "IC50", "setting": "[1]; A549 cells", "value": "8.08 ± 1.05", "unit": "µg/mL"}, {"measurement": "SI [IC50BJ/IC50], A549", "setting": "[1]", "value": 1.24}, {"measurement": "IC50 fold lower compared to irinotecan, HepG2", "setting": "[2]; HepG2 cells, compared to irinotecan", "value": "four-fold lower"}, {"measurement": "IC50", "setting": "[2]; HepG2 cells", "value": "3.86 ± 1.07", "unit": "µg/mL"}, {"measurement": "IC50", "setting": "[3]; MCF-7 cells", "value": "1.59 ± 1.06", "unit": "µg/mL"}, {"measurement": "IC50 fold lower than IC50 of irinotecan, MCF-7", "setting": "[3]; [9]", "value": 13, "unit": "fold"}, {"measurement": "SI value compared to the reference substance, MCF-7", "setting": "[3]; [9]", "value": "three-fold higher"}, {"measurement": "IC50", "setting": "[4]", "value": "10.1 ± 1.18", "unit": "µg/mL"}, {"measurement": "Minimal inhibitory concentration MIC, Staphylococcus aureus 25923", "setting": "[5]", "value": 62.5, "unit": "µg/mL"}, {"measurement": "MIC", "setting": "[5]", "value": 62.5, "unit": "µg/mL"}, {"measurement": "MIC", "setting": "[6]", "value": 125, "unit": "µg/mL"}, {"measurement": "Minimal inhibitory concentration MIC, Staphylococcus aureus MIKROBANK 14.001", "setting": "[6]", "value": 125, "unit": "µg/mL"}, {"measurement": "Minimal inhibitory concentration MIC, Staphylococcus epidermidis 12228", "setting": "[7]", "value": 125, "unit": "µg/mL"}, {"measurement": "MIC", "setting": "[7]", "value": 125, "unit": "µg/mL"}, {"measurement": "MIC", "setting": "[8]", "value": 125, "unit": "µg/mL"}, {"measurement": "melting point", "value": "243 to 245", "unit": "°C"}]}
{"smiles": "COc1cc(-c2nnc(NC(=O)CC3SC(=O)NC3=O)s2)cc(OC)c1OC", "note": "(stereo not drawn) [2-(2,4-dioxo-1,3-thiazolidin-5-yl)-N-[5-(3,4,5-trimethoxyphenyl)-1,3,4-thiadiazol-2-yl]acetamide]", "values": [{"measurement": "IC50, MCF-7 (literature)", "setting": "MCF-7", "value": 15.28, "unit": "µg/mL"}, {"measurement": "IC50, A549 (literature)", "setting": "A549", "value": 12.7, "unit": "µg/mL"}]}
